Laboratory results published in patent US10710996B2, “Pyrido-azaheterecydic compound and preparation method and use thereof” (SHANGHAI INSTITUTE OF MATERIA MEDICA, CHINESE ACADEMY OF …, priority 2015, dated 2020).
Read-outs that look alike come from different tables or passages of the source.

Tests used:
[1] = biological target: IGF1R (Homo sapiens, UniProt P08069); test: Tyrosine kinase inhibition rate (ELISA), IGF1R; format: biochemical; conditions: read-out: Inhibtion rate (%) IGF1R
[2] = biological target: ErbB4 (Homo sapiens, UniProt Q15303); test: Tyrosine kinase inhibition rate (ELISA), ErbB4; format: biochemical; conditions: read-out: Inhibtion rate (%) ErbB4
[3] = Pharmacokinetic test in rats; format: in vivo, Sprague-Dawley rats; conditions: male, Sprague-Dawley, plasma, rat; for MRT: read-out: MRT
Description: 14 male Sprague-Dawley rats, weigh 200-220 g, were randomly divided into 4 groups with 4/3 in each group. The rats were intragastrically and intravenously administered with compound 7S and 8S respectively. The compounds were dissolved in normal saline containing 5% of DMSO and solubilized with 5% of tween-80 (Tween 80), and the final concentration of the sample was 1 mg/ml.
The rats were fasted 12 h before the test, free drinking water. They were fed 2 h after administration.
gavage administration: 0.25 h, 0.5 h, 1.0 h, 2.0 h, 3.0 h, 4.0 h, 6.0 h, 8.0 h and 24 h after administration;
intravenous administration: 5 min, 0.25 h, 0.5 h, 1.0 h, 2.0 h, 4.0 h, 6.0 h, 8.0 h and 24 h after administration;
0.3 ml venous blood was collected from the retrobulbar venous plexus of rats at the above time point, and placed in a heparinized tube and centrifuged at 11000 rpm for 5 min. The plasma was separated and frozen in a refrigerator at −20° C.
The concentrations of the compounds in rat plasma were measured by LC/MS/MS.
Pharmacokinetic parameters after administration were calculated using the non-compartmental model of the Phoenix 1.3 software (Pharsight, U.S.A.).
Peak concentration Cmax and peak time Tmax were the measured values;
The area under the curve of the drug concentration vs. time AUC0-t value: calculated according to trapezoidal rule; AUC0-∞=AUC0-t+Ct/ke, Ct is the plasma concentration at the last measurable time point, ke is the elimination rate constant;
Elimination half-life t1/2=0.693/ke;
Average retention time MRT=AUMC/AUC.
Clearance rate CL=D/AUC0-∞;
Volume of distribution at steady state Vss=CL×MRT

[4] = system: EBC-1 cells; test: Inhibition of c-Met-mediated EBC-1 cell proliferation (SRB staining); format: cell-based; conditions: Homo sapiens, 72 hours treatment
Description: The inhibitory effect of the compounds on the growth of non-small cell cancer EBC-1 cell (a cell line in which Met is continually activated due to the amplification of MET gene, and is a Met-dependent tumor cell line) was measured by sulforhodamine B (SRB) staining assay. A certain amount of EBC-1 cells in their logarithmic growth phase were seeded in 96-well plates at 90 μL per well and cultured overnight, then 10 μL of different concentrations of compounds or solvent control were added thereto, three wells for each concentration. After treated by the compound for 72 hours, the adherent cells were removed of culture medium and fixed with 10% (w/v) trichloroacetic acid (100 μL/well) at 4° C. for 1 hr followed by rinsing with distilled water five times. After drying at room temperature, 100 μL of SRB solution (dissolved in 1% glacial acetic acid at 4 mg/mL) was added to each well to incubate and stain the cells for 15 min at room temperature, then unbound SRB was washed off with 1% glacial acetic acid for five times. After drying at room temperature, 100 μL of 10 mM Tris solution was added to each well. The optical density (OD value) at 515 nm was read on a VERSMax microplate reader. […] The experiment was repeated twice. The IC50 data was calculated as a range based on the test results of concentrations set in the initial screening test.

[5] = biological target: T1, c-Met kinase (Homo sapiens, UniProt P08581); test: Inhibitory effect on c-Met kinase activity at molecular level (ELISA); format: biochemical;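 also: recombinant c-Met kinase domain with 5 µM ATP, 1 h at 37 °C, substrate phosphorylation detected by anti-phosphotyrosine PY99 ELISA at 490 nm versus DMSO negative control, ATP-free wells as blank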
T1 construct: c-Met kinase domain recombinant protein diluted with 49 μL of the reaction buffer was added
Description: Experiment for Preliminarily Evaluating the Inhibitory Effect on the Activity of Receptor Tyrosine Kinase c-Met at Molecular Level
After discarding the liquid in the wells, the plate was washed with T-PBS (0.1% Tween-20 in PBS) in an amount of 200 μL/well three times, each for 5 minutes. The ELISA plate was dried in an oven at 37° C. for 1-2 hours. 50 μl of adenosine triphosphate (ATP) solution diluted with reaction buffer (50 mM 4-hydroxyethylpiperazine ethanesulfonic acid (HEPES) pH 7.4, 50 mM MgCl2, 0.5 mM MnCl2, 0.2 mM Na3VO4, 1 mM dithiothreitol (DTT)) to a final concentration of 5 μM was added to each well. The compounds were diluted to an appropriate concentration with DMSO (1 μL/well) or a solution containing DMSO in a corresponding concentration (negative control well), and then c-Met kinase domain recombinant protein diluted with 49 μL of the reaction buffer was added therein to initiate the reaction, with two ATP-free control wells for each test. The plate was placed in a shaker (100 rpm) at 37° C. for reacting 1 hour, and washed with T-PBS three times. Primary antibody PY99 diluent was added in an amount of 100 μL/well to allow the reaction in a shaker at 37° C. for 0.5 hour, and then the plate was washed with T-PBS three times. Then the secondary antibody horseradish peroxidase labeled goat anti-mouse IgG diluent was added in an amount of 100 μL/well, and the plate was placed in a shaker at 37° C. for reacting 0.5 hour, and then washed with T-PBS three times. 2 mg/ml of o-phenylenediamine (OPD) coloring solution (diluted with 0.1 M citric acid-sodium citrate buffer (pH=5.4) containing 0.03% H2O2) was then added at 100 μL/well and reacted at 25° C. for 1-10 min with light blocked (ultrasound was required to dissolve OPD, the coloring solution was prepared when needed). The reaction was stopped by adding 2 M of H2SO4 in an amount of 50 μL/well, and a wavelength-adjustable microplate reader SPECTRA MAX 190 was read at 490 nm.
The inhibition rate of the sample was calculated by the following equation:

[6] = system: human lung cancer EBC-1 xenograft tumor; test: Growth inhibition of subcutaneous xenograft tumor of human lung cancer EBC-1 in nude mice; format: in vivo; conditions: 50 mg/kg qd/21 po
Description: EBC-1 cells were subcutaneously inoculated into the armpit on the right side of the nude mice in an amount of 5×10^6/mouse respectively to form xenograft tumor, which were then passaged in nude mice for three generations. Tumor tissue that was growing vigorously was cut into about 1.5 mm^3 under sterile conditions, and subcutaneously inoculated into the armpit on the right side of the nude mice, and the diameter of the xenograft tumor was measured with a vernier caliper. The diameter of the subcutaneous xenograft tumor in nude mice was measured with a vernier caliper. […] The diameter of xenograft tumor was measured twice a week and the body weight of mice was weighed during the whole experiment. The tumor volume (TV) was calculated by the following equation: TV=½×a×b^2, wherein a and b represent the length and width, respectively. The relative tumor volume (RTV) was calculated based on the measured results, and the calculation equation thereof is: RTV=Vt/V0, wherein V0 is the tumor volume measured when the mice were divided in different cages and administered (i.e., d0) and Vt is the tumor volume measured each time.

[7] = biological target: Flt-1 (Homo sapiens, UniProt P17948); test: Tyrosine kinase inhibition rate (ELISA), Flt-1; format: biochemical; conditions: read-out: Inhibtion rate (%) Flt-1
[8] = biological target: PDGFR-β (Homo sapiens, UniProt P09619); test: Tyrosine kinase inhibition rate (ELISA), PDGFR-β; format: biochemical; conditions: read-out: Inhibtion rate (%) PDGFR-β
[9] = biological target: RET (Homo sapiens, UniProt P07949); test: Tyrosine kinase inhibition rate (ELISA), RET; format: biochemical; conditions: read-out: Inhibtion rate (%) RET
[10] = biological target: PDGFR-α (Homo sapiens, UniProt P16234); test: Tyrosine kinase inhibition rate (ELISA), PDGFR-α; format: biochemical; conditions: read-out: Inhibtion rate (%) PDGFR-α
[11] = biological target: FGFR1 (Homo sapiens, UniProt P11362); test: Tyrosine kinase inhibition rate (ELISA), FGFR1; format: biochemical; conditions: 1 μM
[12] = po, intragastric (gavage) 10 mg/kg, mean

T1 sequence (P08581 1078-1345 limits assumed): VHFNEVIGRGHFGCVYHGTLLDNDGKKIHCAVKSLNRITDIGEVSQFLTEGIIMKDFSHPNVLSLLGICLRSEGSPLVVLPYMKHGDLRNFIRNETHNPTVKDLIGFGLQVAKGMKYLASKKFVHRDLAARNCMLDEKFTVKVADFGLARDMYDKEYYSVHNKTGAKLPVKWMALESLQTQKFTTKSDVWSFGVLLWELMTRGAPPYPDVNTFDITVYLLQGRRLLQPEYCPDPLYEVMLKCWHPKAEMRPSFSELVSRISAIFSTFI
Sequence of IGF1R (P08069 31-1367, species assumed): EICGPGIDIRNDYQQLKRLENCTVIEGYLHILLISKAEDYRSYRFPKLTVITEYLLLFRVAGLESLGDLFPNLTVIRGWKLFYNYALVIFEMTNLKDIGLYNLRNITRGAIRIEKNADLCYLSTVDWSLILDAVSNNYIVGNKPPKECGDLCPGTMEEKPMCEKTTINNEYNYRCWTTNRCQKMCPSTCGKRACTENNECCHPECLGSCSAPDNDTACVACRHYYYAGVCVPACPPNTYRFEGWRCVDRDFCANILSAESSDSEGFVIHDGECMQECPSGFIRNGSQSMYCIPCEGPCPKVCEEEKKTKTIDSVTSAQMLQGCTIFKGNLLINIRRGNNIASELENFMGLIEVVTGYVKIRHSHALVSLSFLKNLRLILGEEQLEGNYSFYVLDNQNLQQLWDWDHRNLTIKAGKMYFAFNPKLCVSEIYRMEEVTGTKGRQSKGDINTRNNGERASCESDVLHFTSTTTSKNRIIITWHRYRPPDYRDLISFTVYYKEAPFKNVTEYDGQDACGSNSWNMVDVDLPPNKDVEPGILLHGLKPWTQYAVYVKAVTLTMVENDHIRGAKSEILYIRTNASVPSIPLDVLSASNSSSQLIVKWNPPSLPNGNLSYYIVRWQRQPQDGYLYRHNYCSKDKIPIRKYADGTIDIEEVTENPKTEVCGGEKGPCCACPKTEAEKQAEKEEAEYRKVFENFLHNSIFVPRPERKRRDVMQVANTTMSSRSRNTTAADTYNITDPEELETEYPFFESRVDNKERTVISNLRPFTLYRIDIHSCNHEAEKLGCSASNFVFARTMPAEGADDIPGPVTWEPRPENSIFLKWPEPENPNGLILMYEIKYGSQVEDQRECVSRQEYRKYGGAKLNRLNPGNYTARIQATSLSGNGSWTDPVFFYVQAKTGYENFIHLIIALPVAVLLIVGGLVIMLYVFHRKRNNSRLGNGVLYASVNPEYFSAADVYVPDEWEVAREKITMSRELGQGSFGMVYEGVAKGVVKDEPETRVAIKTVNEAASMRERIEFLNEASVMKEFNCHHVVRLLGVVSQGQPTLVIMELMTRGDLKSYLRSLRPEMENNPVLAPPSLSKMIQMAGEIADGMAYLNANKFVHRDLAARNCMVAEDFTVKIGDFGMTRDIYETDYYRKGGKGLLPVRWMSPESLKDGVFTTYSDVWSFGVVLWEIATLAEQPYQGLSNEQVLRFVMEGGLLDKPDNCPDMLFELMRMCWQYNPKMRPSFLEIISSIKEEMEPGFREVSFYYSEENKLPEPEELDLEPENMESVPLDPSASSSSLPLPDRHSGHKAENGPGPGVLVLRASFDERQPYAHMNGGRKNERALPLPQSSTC
Sequence of ErbB4 (Q15303 26-1308, species assumed): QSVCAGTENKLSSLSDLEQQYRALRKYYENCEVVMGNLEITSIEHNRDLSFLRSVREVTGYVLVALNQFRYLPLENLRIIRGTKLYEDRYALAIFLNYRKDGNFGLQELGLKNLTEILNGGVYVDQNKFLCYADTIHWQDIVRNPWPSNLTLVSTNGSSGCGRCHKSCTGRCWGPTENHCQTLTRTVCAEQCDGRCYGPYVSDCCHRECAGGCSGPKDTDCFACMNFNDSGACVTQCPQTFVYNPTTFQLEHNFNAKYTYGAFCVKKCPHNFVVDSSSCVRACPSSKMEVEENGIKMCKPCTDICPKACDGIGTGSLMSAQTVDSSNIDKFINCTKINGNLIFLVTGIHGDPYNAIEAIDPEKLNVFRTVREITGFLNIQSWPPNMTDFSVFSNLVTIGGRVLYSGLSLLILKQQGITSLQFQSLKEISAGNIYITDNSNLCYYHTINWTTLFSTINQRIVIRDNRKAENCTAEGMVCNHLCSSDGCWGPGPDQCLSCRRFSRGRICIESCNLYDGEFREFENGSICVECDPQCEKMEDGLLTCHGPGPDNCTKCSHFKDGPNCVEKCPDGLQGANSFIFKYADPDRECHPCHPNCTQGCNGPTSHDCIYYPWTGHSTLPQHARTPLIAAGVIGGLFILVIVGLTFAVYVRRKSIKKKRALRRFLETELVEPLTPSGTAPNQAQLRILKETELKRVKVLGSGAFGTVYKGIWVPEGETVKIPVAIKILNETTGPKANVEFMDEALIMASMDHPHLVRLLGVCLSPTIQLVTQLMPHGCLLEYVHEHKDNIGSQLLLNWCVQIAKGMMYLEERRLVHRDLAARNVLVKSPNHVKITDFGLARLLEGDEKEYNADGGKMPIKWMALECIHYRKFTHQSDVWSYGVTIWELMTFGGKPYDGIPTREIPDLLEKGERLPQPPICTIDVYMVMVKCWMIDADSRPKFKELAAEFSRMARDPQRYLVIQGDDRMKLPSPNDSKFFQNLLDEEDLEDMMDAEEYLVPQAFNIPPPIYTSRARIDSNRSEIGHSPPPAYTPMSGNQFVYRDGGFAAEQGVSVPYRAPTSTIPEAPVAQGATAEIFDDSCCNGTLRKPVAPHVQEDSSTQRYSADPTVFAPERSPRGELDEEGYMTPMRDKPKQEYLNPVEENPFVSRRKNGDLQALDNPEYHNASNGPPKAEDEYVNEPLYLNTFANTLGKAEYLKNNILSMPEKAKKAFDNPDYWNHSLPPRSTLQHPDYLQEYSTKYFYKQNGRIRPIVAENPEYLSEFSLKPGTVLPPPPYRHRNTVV
Sequence of RET (P07949 29-1114, species assumed): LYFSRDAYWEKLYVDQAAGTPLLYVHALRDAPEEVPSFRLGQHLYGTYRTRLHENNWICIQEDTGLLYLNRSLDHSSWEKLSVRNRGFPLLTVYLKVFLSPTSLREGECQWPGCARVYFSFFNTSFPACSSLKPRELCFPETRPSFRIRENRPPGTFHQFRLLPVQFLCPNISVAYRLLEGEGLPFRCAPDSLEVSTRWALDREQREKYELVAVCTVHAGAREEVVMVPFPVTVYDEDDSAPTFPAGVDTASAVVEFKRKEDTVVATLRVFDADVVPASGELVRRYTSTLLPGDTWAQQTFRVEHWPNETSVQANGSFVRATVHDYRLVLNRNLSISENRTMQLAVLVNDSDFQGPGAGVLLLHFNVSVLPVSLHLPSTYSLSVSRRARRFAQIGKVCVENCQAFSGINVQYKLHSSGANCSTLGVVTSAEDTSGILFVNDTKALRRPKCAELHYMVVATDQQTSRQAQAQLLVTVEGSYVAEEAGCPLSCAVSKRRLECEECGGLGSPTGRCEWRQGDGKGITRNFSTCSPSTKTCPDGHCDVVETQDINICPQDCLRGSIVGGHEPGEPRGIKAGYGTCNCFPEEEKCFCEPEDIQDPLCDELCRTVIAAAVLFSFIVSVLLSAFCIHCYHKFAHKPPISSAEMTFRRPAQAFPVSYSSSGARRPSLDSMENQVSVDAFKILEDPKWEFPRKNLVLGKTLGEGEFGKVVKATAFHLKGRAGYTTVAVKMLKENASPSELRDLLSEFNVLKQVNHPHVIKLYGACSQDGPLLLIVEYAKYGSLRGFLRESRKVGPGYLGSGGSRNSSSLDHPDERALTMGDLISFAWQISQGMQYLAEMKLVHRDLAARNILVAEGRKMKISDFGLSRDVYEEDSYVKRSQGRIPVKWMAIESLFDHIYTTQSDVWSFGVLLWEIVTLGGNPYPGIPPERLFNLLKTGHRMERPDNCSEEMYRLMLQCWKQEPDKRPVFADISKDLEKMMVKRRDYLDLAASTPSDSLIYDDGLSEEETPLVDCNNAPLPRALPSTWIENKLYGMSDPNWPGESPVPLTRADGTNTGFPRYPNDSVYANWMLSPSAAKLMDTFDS
Sequence of FGFR1 (P11362 22-822, species assumed): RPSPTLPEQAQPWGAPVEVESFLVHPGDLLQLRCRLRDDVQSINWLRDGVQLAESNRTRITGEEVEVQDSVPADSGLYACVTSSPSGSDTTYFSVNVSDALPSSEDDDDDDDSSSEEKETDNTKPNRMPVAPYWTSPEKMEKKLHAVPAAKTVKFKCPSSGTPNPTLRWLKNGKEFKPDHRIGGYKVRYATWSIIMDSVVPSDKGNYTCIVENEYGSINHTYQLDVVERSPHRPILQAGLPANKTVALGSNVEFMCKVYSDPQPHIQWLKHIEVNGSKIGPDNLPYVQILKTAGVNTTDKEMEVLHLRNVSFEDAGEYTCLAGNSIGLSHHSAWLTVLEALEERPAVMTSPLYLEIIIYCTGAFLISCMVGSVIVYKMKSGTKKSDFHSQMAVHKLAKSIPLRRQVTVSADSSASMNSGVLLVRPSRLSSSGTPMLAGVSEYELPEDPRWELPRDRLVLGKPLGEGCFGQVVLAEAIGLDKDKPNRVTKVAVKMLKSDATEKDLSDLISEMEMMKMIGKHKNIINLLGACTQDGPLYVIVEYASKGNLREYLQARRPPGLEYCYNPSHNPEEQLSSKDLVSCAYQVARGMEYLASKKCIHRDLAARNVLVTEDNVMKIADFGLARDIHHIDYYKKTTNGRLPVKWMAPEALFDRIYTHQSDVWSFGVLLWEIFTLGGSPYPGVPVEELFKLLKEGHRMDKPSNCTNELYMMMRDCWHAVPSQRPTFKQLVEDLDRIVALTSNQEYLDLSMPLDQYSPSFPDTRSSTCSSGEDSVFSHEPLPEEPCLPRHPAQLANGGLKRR

IC50 [5] [nM] | Compound | IC50 [4] [nM] | other results
 | Nc1ncnc2c1c(-c1cccc(OCc3ccccc3)c1)cn2[C@H]1C[C@@H](CN2CCC2)C1 [AEW541, reference compound] |  | inhibition at 1 µM [1]: 70.9%
 | CN(C)C/C=C/C(=O)Nc1cc2c(Nc3ccc(F)c(Cl)c3)ncnc2cc1O[C@H]1CCOC1 [BIBW2992, reference compound] |  | inhibition at 1 µM [2]: 71.1%
1 to 10 | O=C(Nc1ccc(F)cc1)C1(C(=O)Nc2ccc(Oc3ccnc4cc(OCCCN5CCOCC5)ncc34)c(F)c2)CC1 [Compound 8S] | 10 to 100 | bioavailability ([3]; oral, gavage 10 mg/kg vs intravenous 5 mg/kg, read-out: F (absolute bioavailability)): 38.6%; AUC(0-inf) [3, 12]: 6870 ng·h/mL; AUC(0-t) [3, 12]: 6780 ng·h/mL; Cmax [3, 12]: 2060 ng/mL; Tmax [3, 12]: 1.25 h; half-life [3, 12]: 1.49 h; AUC(0-inf) ([3]; intravenous 5 mg/kg, mean): 8810 ng·h/mL; AUC(0-t) ([3]; intravenous 5 mg/kg, mean): 8770 ng·h/mL; clearance ([3]; intravenous 5 mg/kg, mean): 9.58 mL/min/kg; half-life ([3]; intravenous 5 mg/kg, mean): 1.15 h; Vd ([3]; intravenous 5 mg/kg, mean, read-out: Vss): 0.667 L/kg; MRT ([3]; iv, 5 mg/kg, intravenous 5 mg/kg, mean): 1.17 h; MRT ([3]; po, 10 mg/kg, intragastric (gavage) 10 mg/kg, mean): 2.71 h
1 to 10 | Cn1cc(-c2cc3nccc(Oc4ccc(NC(=O)c5c[nH]cc(-c6ccc(F)cc6)c5=O)cc4F)c3cn2)cn1 [Compound 54S, N-(3-fluoro-4-((7-(1-methyl-1H-pyrazol-4-yl)-1,6-naphthyridin-4-yl)oxy)phenyl)-5-(4-fluorophenyl)-4-oxo-1,4-dihydropyridine-3-carboxamide] | 10 to 100 | 
10 to 100 | O=C(Nc1ccc(F)cc1)C1(C(=O)Nc2ccc(Oc3ccnc4nc(Cl)cnc34)c(F)c2)CC1 [Compound 55S, N-(4-((3-chloropyrido[2,3-b]pyrazin-8-yl)oxy)-3-fluorophenyl)-N-(4-fluorophenyl)cyclopropyl-1,1-dicarboxamide] | 1000 to 10000 | 
100 to 1000 | O=C(Nc1ccc(F)cc1)C1(C(=O)Nc2ccc(Oc3ccnc4ncc(Cl)nc34)c(F)c2)CC1 [Compound 56S] | 1000 to 10000 | 
10 to 100 | O=C(Nc1ccc(F)cc1)C1(C(=O)Nc2ccc(Oc3ccnc4nc(N5CCOCC5)cnc34)c(F)c2)CC1 [Compound 57S] | 1000 to 10000 | 
100 to 1000 | O=C(Nc1ccc(F)cc1)C1(C(=O)Nc2ccc(Oc3ccnc4ncc(N5CCOCC5)nc34)c(F)c2)CC1 [Compound 58S] | 1000 to 10000 | 
1 to 10 | CN1CCN(c2cnc3c(Oc4ccc(NC(=O)C5(C(=O)Nc6ccc(F)cc6)CC5)cc4F)ccnc3n2)CC1 [Compound 59S, N-(3-fluoro-4-((3-(4-methylpiperazin-1-yl)pyrido[2,3-b]pyrazin-8-yl)oxy)phenyl)-N-(4-fluorophenyl)cyclopropyl-1,1-dicarboxamide] | 100 to 1000 | 
10 to 100 | O=C(Nc1ccc(F)cc1)C1(C(=O)Nc2ccc(Oc3ccnc4nc(OCCN5CCOCC5)cnc34)c(F)c2)CC1 [Compound 60S, N-(3-fluoro-4-((3-(2-morpholinoethoxy)pyrido[2,3-b]pyrazin-8-yl)oxy)phenyl)-N-(4-fluorophenyl)cyclopropyl-1,1-dicarboxamide] | 1000 to 10000 | 
10 to 100 | O=C(Nc1ccc(F)cc1)C1(C(=O)Nc2ccc(Oc3ccnc4nc(NCCCN5CCOCC5)cnc34)c(F)c2)CC1 [Compound 62S, N-(3-fluoro-4-((3-((3-morpholinopropyl)amino)pyrido[2,3-b]pyrazin-8-yl)oxy)phenyl)-N-(4-fluorophenyl) cyclopropyl-1,1-dicarboxamide] | 1000 to 10000 | 
1 to 10 | O=C(Nc1ccc(F)cc1)C1(C(=O)Nc2ccc(Oc3ccnc4ncc(NCCCN5CCOCC5)nc34)c(F)c2)CC1 [Compound 63S, N-(3-fluoro-4-((2-((3-morpholinopropyl)amino)pyrido[2,3-b]pyrazin-8-yl)oxy)phenyl)-N-(4-fluorophenyl) cyclopropyl-1,1-dicarboxamide] | 1000 to 10000 | 
1 to 10 | O=C(Nc1ccc(F)cc1)C1(C(=O)Nc2ccc(Oc3ccnc4nc(N5CCNCC5)cnc34)c(F)c2)CC1 [Compound 64S, N-(4-((3-piperazinyl-pyrido[2,3-b]pyrazin-8-yl)oxy)-3-fluorophenyl)-N-(4-fluorophenyl)cyclopropyl-1,1-dicarboxamide] | 1000 to 10000 | 
1000 to 10000 | O=C(Nc1ccc(F)cc1)C1(C(=O)Nc2ccc(Oc3ccnc4ncc(N5CCNCC5)nc34)c(F)c2)CC1 [Compound 65S, N-(4-((2-piperazinyl-pyrido[2,3-b]pyrazin-8-yl)oxy)-3-fluorophenyl)-N-(4-fluorophenyl)cyclopropyl-1,1-dicarboxamide] | 1000 to 10000 | 
1000 to 10000 | O=C(Nc1ccc(F)cc1)C1(C(=O)Nc2ccc(Oc3ccnc4ncc(OCCN5CCOCC5)nc34)c(F)c2)CC1 [Compound 67S, N-(3-fluoro-4-((2-(2-morpholinoethoxy)pyrido[2,3-b]pyrazin-8-yl)oxy)phenyl)-N-(4-fluorophenyl)cyclopropyl-1,1-dicarboxamide] | 1000 to 10000 | 
1000 to 10000 | O=C(Nc1ccc(F)cc1)C1(C(=O)Nc2ccc(Oc3ccnc4ncc(OCCCN5CCOCC5)nc34)c(F)c2)CC1 [Compound 68S, N-(3-fluoro-4-((2-(3-morpholinopropoxy)pyrido[2,3-b]pyrazin-8-yl)oxy)phenyl)-N-(4-fluorophenyl)cyclopropyl-1,1-dicarboxamide] | 1000 to 10000 | 
 | C[C@@H](Oc1cc(-c2cnn(C3CCNCC3)c2)cnc1N)c1c(Cl)ccc(F)c1Cl [PF2341066, Crizotinib, reference compound] |  | TV (mm^3, mean ± SD) d0 ([6]; d0): 123 ± 25 mm^3; Weight (g) d0 ([6]; d0): 17.2 g; RTV (mean ± SD) ([6]; d21): 0.00 ± 0.00; T/C (%) ([6]; d21): 0.00%; TV (mm^3, mean ± SD) d21 ([6]; d21): 0 ± 0 mm^3; Weight (g) d21 ([6]; d21): 19.6 g
 | CCN(CC)CCNC(=O)c1c(C)[nH]c(/C=C2\C(=O)Nc3ccc(F)cc32)c1C [Su11248, reference compound] |  | inhibition at 1 µM [7]: 77.4%; inhibition at 1 µM [8]: 55.6%; inhibition at 1 µM [9]: 80.6%; inhibition at 1 µM [10]: 54.8%
 | AZD4547 [reference compound] |  | Inhibtion rate (%) FGFR1 [11]: 100%
